pEC50, pIC50: −log10 of the molar value.
How the values were obtained:
Nurr1 = molecular target: T1, Nurr1 (Mus musculus, UniProt Q06219); assay: Activity on neuroblastomas cell lines - Nurr1 modulation (N2A cells, NBRE8x luciferase reporter); format: cell-based; conditions: N2A cells stably transfected with NBRE8x-luciferase, 24 hours with compound; read-out: EC50 activity, Nurr1 modulation in N2A neuroblastoma cells
T1 construct: N2A cells obtained from ATCC were stably transfected with NBRE8x (50-AAGGTCA-30) in tandem coupled with luciferase reporter gene; host or cells: N2A neuroblastoma cells
Method: N2A cells obtained from ATCC were stably transfected with NBRE8x (50-AAGGTCA-30) in tandem coupled with luciferase reporter gene. Each NBRE sequence was separated with 5 nucleotides. N2A were grown in 75 cm^2 flask in DMEM containing 10% calf serum, 4.5 g/L glucose and 0.4 mg/ml geneticin. After one week in culture cells were harvested by trypsinization (0.25%, 30 minutes) then plated onto 96 well dishes at the density of 60,000 cell per well in 75 μl of DMEM without phenol red containing 4.5 g/l glucose, 10% lipid free serum from Hyclone. After 24 hours compounds were added (25 μl/well) at different concentration for further 24 hours. Measurement is performed by adding 100 μl of Steadylite per well for 30 minutes and plates are read using microplate […] reader.

hNur77 = molecular target: T2, hNur77 (Homo sapiens, UniProt P22736); assay: Activity on HEK-Nur77 modulation (Gal4-DBD luciferase reporter in stable HEK293 cells); format: cell-based; conditions: 24 hours with compound
T2 construct: The pFR-Luc (Gal4 UAS luciferase) reporter sits in the same cells, and expression is induced by doxycycline
Method: Stable HEK293 cells expressing Gal4-DBD-FL-NOT, -hNur77, -hNOR1 and Pfr-Luc were obtained by limit dilution. HEK cells were grown in 75 cm^2 flask in DMEM high glucose 30-2002™ containing 10% calf serum, hygromycin at a content of 250 μg/ml, doxycyclin at a content of 2 μg/ml (to induce expression) and 0.4 mg/ml of penicillin. After one week in culture, cells were harvested by trypsinization then plated onto 96 well dishes at the density of 20,000 cell per well in 75 μl of culture medium. After 24 hours compounds were added (25 μl per well) at different concentration for further 24 hours. The medium was removed and measurement was performed by adding 50 μl of Steadyglo (Promega, E2510) with 50 μl PBS per well for 15 minutes and plates were read using microplate luminescent reader.

T2 sequence (P22736 360-598 limits assumed): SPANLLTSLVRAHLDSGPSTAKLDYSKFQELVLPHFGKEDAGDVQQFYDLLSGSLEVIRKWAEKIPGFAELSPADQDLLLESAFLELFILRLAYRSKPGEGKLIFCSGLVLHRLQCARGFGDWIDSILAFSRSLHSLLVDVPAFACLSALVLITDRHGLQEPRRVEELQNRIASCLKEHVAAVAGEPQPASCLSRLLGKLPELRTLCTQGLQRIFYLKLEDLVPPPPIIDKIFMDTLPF
T1 sequence (Q06219 whole entry): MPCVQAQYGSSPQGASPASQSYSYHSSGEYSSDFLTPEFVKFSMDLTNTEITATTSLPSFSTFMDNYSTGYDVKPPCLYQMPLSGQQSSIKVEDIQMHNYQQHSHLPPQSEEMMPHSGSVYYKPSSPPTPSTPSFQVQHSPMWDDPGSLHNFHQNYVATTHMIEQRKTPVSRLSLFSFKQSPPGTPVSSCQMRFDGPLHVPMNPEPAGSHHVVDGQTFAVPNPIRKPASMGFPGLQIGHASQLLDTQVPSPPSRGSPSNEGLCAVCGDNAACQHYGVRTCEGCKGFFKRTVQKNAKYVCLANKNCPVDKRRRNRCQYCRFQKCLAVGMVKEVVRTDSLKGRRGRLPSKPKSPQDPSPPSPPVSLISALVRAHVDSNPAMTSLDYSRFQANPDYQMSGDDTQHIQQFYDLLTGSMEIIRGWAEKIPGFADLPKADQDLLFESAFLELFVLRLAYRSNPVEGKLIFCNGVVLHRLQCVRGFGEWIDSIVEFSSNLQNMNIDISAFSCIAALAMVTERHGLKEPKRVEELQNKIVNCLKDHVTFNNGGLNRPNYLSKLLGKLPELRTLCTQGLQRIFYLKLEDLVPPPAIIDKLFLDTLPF

Row | SMILES | pEC50 (Nurr1) | pIC50 (hNur77) | melting point [°C]
1 | Clc1ccc(-c2nc3ccc4[nH]ccc4n3c2Cl)cc1 [compound of formula (1), 1-Chloro-2-(4-chlorophenyl)-6H-imidazo[1,2-a]pyrrolo[2,3-e]pyridine] | 9.70 | 5.00 | 252
2 | Clc1ccc(-c2cn3c(ccc4[nH]ccc43)n2)cc1 [compound of formula (2), 2-(4-Chlorophenyl)-6H-imidazo[1,2-a]pyrrolo[2,3-e]pyridine] | 10.52 | 6.52 | –

Source: patent US20240294529A1, “6H-IMIDAZO[1,2-A]PYRROLO[2,3-E]PYRIDINE DERIVATIVES FOR USE IN THERAPY” (SANOFI, priority 2021, published 2024)
